Test results: patent US5369126A, “Nonatetraenoic acid derivative for use in treating acne” (Hoffmann-La Roche Inc., priority 1993, dated 1994)
Read-outs that look alike come from different tables or passages of the source.

What was measured:
[1] = tested on: human sebaceous cells (sebocytes); test: Inhibition of human sebocyte proliferation in vitro; type: cell-based; details: read-out: ED50, inhibition of human sebocyte proliferation in vitro
Protocol: The cells are cultured in Iscove's medium containing 10% fetal calf serum and 4 μg/ml dexamethasone.
Cells are plated in medium without the test compound and then given test compound in fresh medium 24-48 hours after the initial plating. The cultures are given fresh medium containing the test compound, every 48 hours. On the day of harvesting, the cultures are rinsed with 0.03% EDTA in PBS to remove only the 3T3 fibroblasts, followed by incubation in 0.05% trypsin/0.03% EDTA. The cells are suspended, mixed vigorously to prepare a single cell suspension and counted in a hemocytometer.
All test compounds are handled in the following manner. Stock solutions are made up as 10^-2 M solutions in DMSO and stored at -20° C. in the dark. Solutions are never used after one month of storage. During experimental use, the solutions, which have been aliquoted, are brought to room temperature and used by diluting directly into complete medium to the appropriate concentration.

[2] = tested on: hamster ear sebaceous glands; test: Hamster ear sebaceous gland assay, oral dosing; type: in vivo, Golden Syrian hamster (male); details: 4 weeks
Protocol: Charles River Golden Syrian male hamsters, weighing between 150 to 160 grams, were housed for one month after receipt before dosing with compounds. […] Fresh solutions were made up weekly.
Hamsters were given 0.2 ml of drug solution via oral intubation. Animals were dosed daily for five days, rested for two days, and dosed again for five days until 20 doses were given. Hamsters were weighed at the beginning and end of the dosing regimen.
Hamsters were sacrificed by CO2 inhalation, and the ears removed for histological evaluation. One ear was fixed with 10% buffered formalin, processed for paraffin embedding, sectioned, and stained with hematoxylin and eosin (H&E). The area of sebaceous glands in cross-sections of hamster ears was examined by image analysis using a Leitz TAS Plus system.
Data is given as the average area of 30-40 sebaceous glands as percent of the control (solvent-treated) sections.

rhino mouse utricles [3] = test: Rhino mouse utricle assay, topical dosing; type: in vivo; details: 3 weeks, vs solvent-treated control
Protocol: (§1) Male and female rhino mice were weighed prior to the start of an experiment. For topical studies, test compounds are dissolved in 100% acetone and 100 μl applied to the dorsa of the mice five times a week, once daily, for three weeks. For oral studies, test compounds were dissolved in 100% propylene glycol and 100 μl given by oral intubation 5 times a week, once daily, for three weeks. Final body weights were recorded at the time of sacrifice, done by CO2 inhalation. A flap of skin from the dorsa was cut out and processed by histological methods to produce a whole mount of the tissue. Utricle size was measured by image analysis using either the Leitz TAS Plus system or the Ultimage system on a modified MACINTOSH computer. Data is given as the % change from solvent-treated control tissue (Tables 3 and 4).

rhino mouse utricles [4] = test: Rhino mouse utricle assay, oral dosing; type: in vivo; details: 3 weeks, vs solvent-treated control
Protocol: as §1

human sebaceous glands = details: Landthaler et al., 1980; cited from earlier work
acne = details: Farrell 1980; Hammerstein 1975; Lyons 1982; Weissman 1985; cited from earlier work
[5] = in vivo; cited from earlier work
[6] = tested on: Syrian hamster ear sebaceous gland; details: Plewig et al., 1981; cited from earlier work
[7] = Toxicity observed in the acne models of Examples 2-4; type: in vivo
Protocol: The compound of the invention was tested as described in Examples 2-4, below, in several acne models.

[8] = Experiment 2, oral 0.5 mg/kg, vs solvent-treated control
[9] = Experiment 2, oral 2.5 mg/kg, vs solvent-treated control
[10] = Experiment 2, oral 5 mg/kg, vs solvent-treated control
[11] = Experiment 2, oral 10 mg/kg, vs solvent-treated control
[12] = Experiment 1, topical 0.01 % solution in acetone
[13] = Experiment 1, topical 0.1 % solution in acetone
[14] = Experiment 2, topical 0.001 % solution in acetone
[15] = Experiment 2, topical 0.01 % solution in acetone
[16] = Experiment 2, topical 0.1 % solution in acetone
[17] = oral 0.25 mg/kg in propylene glycol
[18] = oral 1.25 mg/kg in propylene glycol
[19] = oral 5 mg/kg in propylene glycol

For `CC1=C(/C=C/C(C)=C/C=C/C(C)=C\C(=O)O)C(C)(C)CCC1` [13-cis retinoic acid, reference compound], the IC50 [1] was 50 nM, the “% Decrease, hamster ear sebaceous gland size” value [2, 8] was -13% and the “% Decrease, hamster ear sebaceous gland size” value [2, 9] was -24%. The “% Decrease, hamster ear sebaceous gland size” value [2, 10] was -34%, the “% Decrease, hamster ear sebaceous gland size” value [2, 11] was -30% and the “% Decrease, rhino mouse utricle size” value (rhino mouse utricles [3]; [12]) was -44%. For the same compound, the “% Decrease, rhino mouse utricle size” value (rhino mouse utricles [3]; [13]) was -55%, the “% Decrease, rhino mouse utricle size” value (rhino mouse utricles [3]; [14]) was -27% and the “% Decrease, rhino mouse utricle size” value (rhino mouse utricles [3]; [15]) was -58%. The “% Decrease, rhino mouse utricle size” value (rhino mouse utricles [3]; [16]) was -61%, the “% Decrease, rhino mouse utricle size” value (rhino mouse utricles [4]; [17]) was -19% and the “% Decrease, rhino mouse utricle size” value (rhino mouse utricles [4]; [18]) was -39%. The “% Decrease, rhino mouse utricle size” value (rhino mouse utricles [4]; [19]) was -47%, the “reduction of the size of human sebaceous glands” value (human sebaceous glands) was “up to 90%” and the “effect on sebum production” value (acne) was “reduce sebum production”. For the same compound, the “effect on severity of acne” value (acne) was “reduce the severity of acne”, the side effects [5] was “deleterious side effects such as hypervitaminosis A” and the “sensitivity of Syrian hamster ear sebaceous gland” value [6] was “sensitive”.
With `CCCCCCCCCOc1c(C)cc(C)cc1/C=C/C(C)=C/C=C/C(C)=C/C(=O)O` [Compound I, (all-E)-3,7-dimethyl-9-[3,5-dimethyl-2-(nonyloxy)-phenyl]-2,4,6,8-nonatetraenoic acid] the IC50 ([1]; amount necessary to inhibit proliferation by 50% vs diluent-treated control, tested at 10^-6 to 10^-9 M) was 10 nM, the “% Decrease, hamster ear sebaceous gland size” value ([2]; Experiment 1, oral 0.5 mg/kg, vs solvent-treated control) was -19% and the “% Decrease, hamster ear sebaceous gland size” value ([2]; Experiment 1, oral 1.5 mg/kg, vs solvent-treated control) was -27%. The “% Decrease, hamster ear sebaceous gland size” value ([2]; Experiment 1, oral 5 mg/kg, vs solvent-treated control) was -33%, the “% Decrease, hamster ear sebaceous gland size” value [2, 8] was -11% and the “% Decrease, hamster ear sebaceous gland size” value [2, 9] was -18%. The “% Decrease, hamster ear sebaceous gland size” value [2, 10] was -24%, the “% Decrease, hamster ear sebaceous gland size” value [2, 11] was -33% and the “% Decrease, hamster ear sebaceous gland size” value ([2]; Experiment 3a, vehicle = Propylene Glycol, oral 0.5 mg/kg) was -19%. The “% Decrease, hamster ear sebaceous gland size” value ([2]; Experiment 3a, vehicle = Propylene Glycol, oral 1.6 mg/kg) was -27%, the “% Decrease, hamster ear sebaceous gland size” value ([2]; Experiment 3a, vehicle = Propylene Glycol, oral 6 mg/kg) was -33% and the “% Decrease, hamster ear sebaceous gland size” value ([2]; Experiment 3b, vehicle = Labrafil, oral 0.6 mg/kg) was -18%. For the same compound, the “% Decrease, hamster ear sebaceous gland size” value ([2]; Experiment 3b, vehicle = Labrafil, oral 1.6 mg/kg) was -26%, the “% Decrease, hamster ear sebaceous gland size” value ([2]; Experiment 3b, vehicle = Labrafil, oral 5 mg/kg) was -26% and the “% Decrease, hamster ear sebaceous gland size” value ([2]; Experiment 3c, vehicle = Tween 80, oral 0.5 mg/kg) was -13%. For the same compound, the “% Decrease, hamster ear sebaceous gland size” value ([2]; Experiment 3c, vehicle = Tween 80, oral 1.4 mg/kg) was -13%, the “% Decrease, hamster ear sebaceous gland size” value ([2]; Experiment 3c, vehicle = Tween 80, oral 6 mg/kg) was -22% and the “% Decrease, rhino mouse utricle size” value (rhino mouse utricles [3]; [12]) was -10%. For the same compound, the “% Decrease, rhino mouse utricle size” value (rhino mouse utricles [3]; [13]) was -42%, the “% Decrease, rhino mouse utricle size” value (rhino mouse utricles [3]; [14]) was -1% and the “% Decrease, rhino mouse utricle size” value (rhino mouse utricles [3]; [15]) was -11%. For the same compound, the “% Decrease, rhino mouse utricle size” value (rhino mouse utricles [3]; [16]) was -30%, the “% Decrease, rhino mouse utricle size” value (rhino mouse utricles [4]; [17]) was -23% and the “% Decrease, rhino mouse utricle size” value (rhino mouse utricles [4]; [18]) was -23%. The “% Decrease, rhino mouse utricle size” value (rhino mouse utricles [4]; [19]) was -28% and the “toxicity at all doses tested” value [7] was “non-toxic at all doses tested”.
For `CC(=O)O[C@]1(C(C)=O)CC[C@H]2[C@@H]3C=C(Cl)C4=CC(=O)[C@@H]5C[C@@H]5[C@]4(C)[C@H]3CC[C@@]21C` [cyproterone acetate], the “effect on sebum production” value (acne) is given as “reduce sebum production” and the “effect on severity of acne” value (acne) is given as “reduce the severity of acne”.
For `CC(=O)S[C@@H]1CC2=CC(=O)CC[C@]2(C)[C@H]2CC[C@@]3(C)[C@@H](CC[C@@]34CCC(=O)O4)[C@H]12` [spironolactone], the “effect on sebum production” value (acne) is listed as “reduce sebum production” and the “effect on severity of acne” value (acne) is listed as “reduce the severity of acne”.
